Assay in all cases: NCI tumour cell line growth inhibition, 48 h
For experiment [1], the system named is SNB-78 CNS.
Experiment [2] deals with KM20L2 colon.
For experiment [3], the system named is LXFL 529 NSCLC.
In experiment [4] the test system is XF 498 CNS.
Experiment [5] has as its system HOP-18 NSCLC.
The test system of experiment [6] is MDA-MB-231 breast.
The test system of experiment [7] is T-47D breast.
The test system of experiment [8] is PC-3 prostate.
For experiment [9], the system named is DU-145 prostate.
Experiment [10] relates to HS 578T breast.

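Tested at 5 concentrations; 48 h exposure; 96-well plates; endpoints linearly interpolated, else capped at highest concentration. GI50 is the concentration that inhibits growth by half. TGI marks complete inhibition of growth.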

In the case of `CCc1c(OC(C)=O)c2c(NC3OC(COC(C)=O)C(OC(C)=O)C(OC(C)=O)C3OC(C)=O)nc(SC)nc2oc1=O` (stereo unspecified), the TGI in experiment [1], in experiment [2], in experiment [3], in experiment [4] and in experiment [5] was more than 100 µM each time.

For the molecule `O=[N+]([O-])c1cccnc1S(=O)(=O)c1ccccc1`, the TGI was 44 µM in [1]; 30.3 µM in experiment [2]; 5.87 µM in experiment [3]; 25.8 µM in experiment [4]; 25.7 µM in experiment [5].

Consider `CNC(=O)OCc1nc(SSc2nc(COC(=O)NC)c(COC(=O)NC)n2C)n(C)c1COC(=O)NC`, for which the TGI in experiment [1], in experiment [2], in experiment [3], in experiment [4] and in experiment [5] was more than 100 µM in each case.

As for `C/C(=N\NC(=S)N1CCC1)c1ccccn1`, the TGI in experiment [6], in experiment [1], in experiment [2], in experiment [7], in experiment [8] and in experiment [9] was more than 100 µM in each case. For the same molecule, the TGI in [3], in [4], in experiment [10] and in experiment [5] was more than 100 µM throughout. The GI50 in experiment [7] is 0.0395 µM.

For `O=C1C=CC2(O)OCC3C=C4O[C@@H]5OC6(CCCCC6)O[C@@H]5C4[C@@H]2[C@@H]13` (stereo partly specified), the TGI is 83.3 µM in experiment [1]; more than 100 µM in [2]; 29.7 µM in experiment [3]; 72.6 µM in experiment [4]; more than 100 µM in [5].

Consider `CC(C)N(C(=O)C12C3C4C1C1C4(C#N)C3C12C(=O)O)C(C)C` (stereo unspecified), for which the TGI in experiment [1], in [2], in [3], in experiment [4] and in experiment [5] was more than 100 µM throughout.

For the molecule `CCCCCCCCCC1CC(=O)OC23CCCC(=O)C12O3` (stereo unspecified), the TGI in experiment [1], in experiment [2], in experiment [3], in experiment [4] and in experiment [5] was more than 100 µM each time.

For the molecule `O=C1C=CC2(CCC23C=CC(=O)O3)O1` (stereo unspecified), the TGI in [1], in [2], in [3], in experiment [4] and in [5] was more than 100 µM throughout.

Consider `CCOC(=O)C[C@@]12CCCN[C@]1(C)CCc1ccccc12`, for which the TGI in [1], in [2], in [3], in [4] and in [5] was more than 100 µM in each case.

As for `N#CC(C(=O)Nc1ccccc1)C1=C(Cl)C(=O)c2ccccc2C1=O` (stereo unspecified), the TGI amounted to 45.9 µM in experiment [1]; 48.9 µM in experiment [2]; 35.5 µM in experiment [3]; 30.3 µM in experiment [4]; 22.7 µM in experiment [5].

Consider `COc1ccccc1/C=C(\NC(=O)c1ccccc1)c1nc2ccc(Cl)cc2[nH]1`, for which the TGI in [1] was more than 100 µM; in [2], more than 100 µM; in experiment [3] it was 62.9 µM; in experiment [4] it was 89.5 µM; in experiment [5], 82.6 µM.

The values are drawn from PubChem BioAssay (NCI).
